Test results: ChEMBL document CHEMBL5260848, “Recent advancements in the development of bioactive pyrazoline derivatives” (Eur J Med Chem, 2020)
Values after ≈ are worked out from the molar mass of the structure shown. Counter-ions that a name gives are not always drawn.

Tests used:
Mus musculus [1] = test: Antidiabetic activity against albino mouse assessed as reduction in blood glucose level at 0.2 mmol/Kg relative to control; type: functional; set-up: scale not given: the % may be the effect or the level left
Carbonic anhydrase 9 [2] = biological target: T1, Carbonic anhydrase 9 (Homo sapiens, UniProt Q16790); test: Inhibition of human CA9
Carbonic anhydrase 2 [3] = biological target: T2, Carbonic anhydrase 2 (Homo sapiens, UniProt P00918)
Carbonic anhydrase 1 [4] = biological target: T3, Carbonic anhydrase 1 (Homo sapiens, UniProt P00915)
T3 sequence (P00915 whole entry): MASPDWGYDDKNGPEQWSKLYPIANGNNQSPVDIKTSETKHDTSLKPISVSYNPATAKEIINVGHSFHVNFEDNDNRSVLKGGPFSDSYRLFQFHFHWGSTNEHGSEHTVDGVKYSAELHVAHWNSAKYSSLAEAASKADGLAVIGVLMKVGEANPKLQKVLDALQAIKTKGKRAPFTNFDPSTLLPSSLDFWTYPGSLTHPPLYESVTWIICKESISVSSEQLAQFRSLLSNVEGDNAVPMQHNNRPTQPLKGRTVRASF

Mus musculus [5] = species: Mus musculus; test: Antidepressant activity in Swiss albino mouse assessed as decrease in immobility time by forced swimming test; type: functional
Mus musculus [6] = species: Mus musculus; test: Antidepressant activity in Swiss albino mouse assessed as decrease in immobility time by tail suspension test; type: functional
Candida albicans [7] = test: Antifungal activity against Candida albicans by agar dilution method; type: functional
[8] = Antioxidant activity assessed as DPPH radical scavenging activity; type: functional
[9] = Cytotoxicity against human HPLF cells assessed as reduction in cell viability incubated for 48 hrs by MTT assay; type: functional
Ca9-22 = test: Cytotoxicity against human Ca9-22 cells assessed as reduction in cell viability incubated for 48 hrs by MTT assay; type: functional
Carbonic anhydrase 9 [10] = biological target: T1, Carbonic anhydrase 9; test: Inhibition of human CA9 preincubated for 15 mins by phenol red dye based stopped flow CO2 hydration assay
HSC-3 = test: Cytotoxicity against human HSC-3 cells assessed as reduction in cell viability incubated for 48 hrs by MTT assay; type: functional
Carbonic anhydrase 12 = Carbonic anhydrase 12 (Homo sapiens, UniProt O43570); test: Inhibition of human CA12 preincubated for 15 mins by phenol red dye based stopped flow CO2 hydration assay
Sequence of Carbonic anhydrase 12 (O43570 whole entry): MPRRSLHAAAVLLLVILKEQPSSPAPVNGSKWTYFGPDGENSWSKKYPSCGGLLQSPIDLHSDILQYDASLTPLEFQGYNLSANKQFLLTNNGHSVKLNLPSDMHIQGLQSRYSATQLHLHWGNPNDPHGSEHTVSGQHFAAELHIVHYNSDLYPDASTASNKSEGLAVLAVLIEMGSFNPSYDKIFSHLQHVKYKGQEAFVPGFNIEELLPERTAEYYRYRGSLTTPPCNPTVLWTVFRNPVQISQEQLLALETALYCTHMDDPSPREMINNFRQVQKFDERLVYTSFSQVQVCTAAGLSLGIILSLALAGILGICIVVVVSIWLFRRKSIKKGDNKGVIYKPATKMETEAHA

HSC-2 = test: Cytotoxicity against human HSC-2 cells assessed as reduction in cell viability incubated for 48 hrs by MTT assay; type: functional
[11] = Cytotoxicity against human HGF cells assessed as reduction in cell viability incubated for 48 hrs by MTT assay; type: functional
[12] = Cytotoxicity against human HPC cells assessed as reduction in cell viability incubated for 48 hrs by MTT assay; type: functional
MCF7 = test: Cytotoxicity against human MCF7 cells; type: functional, cell-based
Cryptococcus neoformans = test: Antifungal activity against Cryptococcus neoformans assessed as reduction in microbial growth; type: functional
Candida albicans [13] = test: Antifungal activity against Candida albicans assessed as reduction in microbial growth; type: functional
[14] = Cytotoxicity against human Panel NCI-58 (58 carcinoma cell lines) cells; type: functional
Candida albicans [15] = test: Antifungal activity against Candida albicans; type: functional
Aspergillus niger = test: Antifungal activity against Aspergillus niger; type: functional
Aspergillus clavatus = test: Antifungal activity against Aspergillus clavatus; type: functional
Acetylcholinesterase = Acetylcholinesterase (Homo sapiens, UniProt P22303)
Sequence of Acetylcholinesterase (P22303 whole entry): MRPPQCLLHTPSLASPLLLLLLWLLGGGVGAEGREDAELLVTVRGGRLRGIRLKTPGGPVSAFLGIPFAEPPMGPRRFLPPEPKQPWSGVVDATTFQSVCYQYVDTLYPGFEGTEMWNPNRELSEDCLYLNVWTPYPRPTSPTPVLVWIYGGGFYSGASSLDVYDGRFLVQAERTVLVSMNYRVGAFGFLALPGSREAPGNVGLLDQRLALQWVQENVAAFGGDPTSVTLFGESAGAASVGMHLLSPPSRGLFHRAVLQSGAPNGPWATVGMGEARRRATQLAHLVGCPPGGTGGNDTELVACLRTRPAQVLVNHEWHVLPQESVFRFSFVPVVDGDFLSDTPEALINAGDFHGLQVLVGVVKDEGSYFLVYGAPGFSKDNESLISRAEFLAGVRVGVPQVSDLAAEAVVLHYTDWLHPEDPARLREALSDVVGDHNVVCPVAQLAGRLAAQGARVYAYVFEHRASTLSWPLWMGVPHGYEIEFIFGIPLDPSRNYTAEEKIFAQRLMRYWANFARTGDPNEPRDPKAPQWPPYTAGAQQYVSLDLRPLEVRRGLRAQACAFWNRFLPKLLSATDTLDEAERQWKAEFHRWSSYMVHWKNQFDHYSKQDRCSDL

Carbonic anhydrase 1 [16] = biological target: T3, Carbonic anhydrase 1; test: Inhibition of human recombinant CA1
Carbonic anhydrase 2 [17] = biological target: T2, Carbonic anhydrase 2; test: Inhibition of human recombinant CA2
Carbonic anhydrase 4 = Carbonic anhydrase 4 (Homo sapiens, UniProt P22748); test: Inhibition of human recombinant CA4
Sequence of Carbonic anhydrase 4 (P22748 whole entry): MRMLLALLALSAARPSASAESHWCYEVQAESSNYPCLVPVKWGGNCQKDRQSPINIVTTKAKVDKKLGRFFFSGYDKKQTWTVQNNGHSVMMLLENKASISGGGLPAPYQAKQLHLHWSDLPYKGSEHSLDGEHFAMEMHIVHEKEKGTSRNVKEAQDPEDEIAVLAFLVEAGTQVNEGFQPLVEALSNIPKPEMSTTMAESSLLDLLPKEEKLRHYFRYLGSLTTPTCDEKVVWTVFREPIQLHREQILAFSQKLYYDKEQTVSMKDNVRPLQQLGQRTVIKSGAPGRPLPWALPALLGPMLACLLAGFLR

Carbonic anhydrase 9 [18] = biological target: T1, Carbonic anhydrase 9

Cc1ccc(C2=NN(c3ccc(S(=O)(=O)NC(=O)NC4CCCCC4)cc3)C(c3ccc(F)cc3)C2)cc1 (centres undefined)
Activity (Mus musculus [1]): 16%

O=C(Nc1ccccc1)NS(=O)(=O)c1ccc(N2N=C(c3ccc(Br)cc3)CC2c2ccc(F)cc2)cc1 (centres undefined)
Activity (Mus musculus [1]): 16%

O=C(Nc1ccc(Cl)cc1)NS(=O)(=O)c1ccc(N2N=C(c3ccc(Br)cc3)CC2c2ccc(F)cc2)cc1 (centres undefined)
Activity (Mus musculus [1]): 16%

NS(=O)(=O)c1ccc(C(=O)N2N=C(c3ccccc3)CC2c2ccc(Cl)cc2)cc1 (centres undefined)
Ki (Carbonic anhydrase 9 [2]): 0.0055 µM | Ki (Carbonic anhydrase 2 [3]): 0.0317 µM | Ki (Carbonic anhydrase 1 [4]): 0.0878 µM

COc1cc(-c2ccc(C3=NNC(c4ccc(Br)cc4)C3)c(C)n2)cc(OC)c1OC (centres undefined)
Time (Mus musculus [5]): 66.67 s | Time (Mus musculus [6]): 70.33 s

COc1ccc2cc(C3CC(c4cc(Br)ccc4O)=NO3)c3nnnn3c2c1 (centres undefined)
MIC (Candida albicans [7]): 25 µg/mL (≈ 56.8 µM) | IC50 [8]: 23.3 µg/mL (≈ 52.9 µM)

NS(=O)(=O)c1ccc(N2N=C(c3ccc(O)cc3)CC2c2ccc(F)cc2)cc1 (centres undefined)
CC50 [9]: 39.3 µM | CC50 (Ca9-22): 39.3 µM | Ki (Carbonic anhydrase 9 [10]): 0.0535 µM | CC50 (HSC-3): 39.3 µM | Ki (Carbonic anhydrase 12): 0.0062 µM | CC50 (HSC-2): 39.3 µM | CC50 [11]: 39.3 µM | CC50 [12]: 39.3 µM

C[C@]12CC[C@@H]3c4ccc(O)cc4CC[C@H]3[C@@H]1CC1C2=NN(c2ccccc2)C1c1ccc(Br)cc1 (some centres undefined)
IC50 (MCF7): 0.043 µM

Cc1ccc(C2CC(c3ccc(O)cc3)=NN2c2ccc(S(N)(=O)=O)cc2)cc1 (centres undefined)
CC50 [9]: 39.3 µM | CC50 (Ca9-22): 39.3 µM | CC50 (HSC-3): 39.3 µM | CC50 (HSC-2): 39.3 µM | CC50 [11]: 39.3 µM | CC50 [12]: 39.3 µM

Cc1ccc(C2=NN(c3ccc(S(=O)(=O)NC(=O)Nc4ccc(Cl)cc4)cc3)C(c3ccc(F)cc3)C2)cc1 (centres undefined)
Activity (Mus musculus [1]): 16%

COc1ccc(C2CC(c3cccc(Nc4ccnc5cc(Cl)ccc45)c3)=NN2c2ccccc2)cc1 (centres undefined)
MIC50 (Cryptococcus neoformans): 3.9 µg/mL | MIC50 (Candida albicans [13]): 3.9 µg/mL | GI50 [14]: < 1 µM

O=C(c1ccncc1)N1N=C(c2ccccc2Cl)CC1c1cc2ccccc2nc1Cl (centres undefined)
MIC (Candida albicans [15]): 12.5 µg/mL (≈ 27.9 µM) | MIC (Aspergillus niger): 12.5 µg/mL (≈ 27.9 µM) | MIC (Aspergillus clavatus): 12.5 µg/mL (≈ 27.9 µM)

COc1ccc(C2CC(c3ccc(F)cc3)=NN2c2ccc(S(N)(=O)=O)cc2)c(OC)c1 (centres undefined)
Ki (Acetylcholinesterase): 0.0377 µM

CN1N=C2C(C[C@H]3[C@@H]4CCc5cc(O)ccc5[C@H]4CC[C@]23C)C1c1cccs1 (some centres undefined)
IC50 (MCF7): 0.043 µM

COc1ccc(-c2ccc(C3=NNC(c4ccc(Br)cc4)C3)c(C)n2)cc1OC (centres undefined)
Time (Mus musculus [5]): 66.67 s | Time (Mus musculus [6]): 70.33 s

O=C(c1ccncc1)N1N=C(c2cccc([N+](=O)[O-])c2)CC1c1cc2ccccc2nc1Cl (centres undefined)
MIC (Candida albicans [15]): 12.5 µg/mL (≈ 27.3 µM) | MIC (Aspergillus niger): 12.5 µg/mL (≈ 27.3 µM) | MIC (Aspergillus clavatus): 12.5 µg/mL (≈ 27.3 µM)

CC(=O)N1N=C(c2ccc(OS(N)(=O)=O)cc2)CC1c1ccc(C(F)(F)F)cc1 (centres undefined)
Ki (Carbonic anhydrase 1 [16]): 2.46 µM | Ki (Carbonic anhydrase 2 [17]): 0.0004 µM | Ki (Carbonic anhydrase 4): 0.0177 µM | Ki (Carbonic anhydrase 9 [18]): 0.0148 µM

O=C(NC1CCCCC1)NS(=O)(=O)c1ccc(N2N=C(c3ccc(Br)cc3)CC2c2ccc(F)cc2)cc1 (centres undefined)
Activity (Mus musculus [1]): 16%

Cc1nc(-c2ccc(F)cc2)ccc1C1=NNC(c2cc(F)cc(F)c2)C1 (centres undefined)
Time (Mus musculus [5]): 66.67 s | Time (Mus musculus [6]): 70.33 s

O=C(c1ccncc1)N1N=C(c2ccc(Br)cc2)CC1c1cc2ccccc2nc1Cl (centres undefined)
MIC (Candida albicans [15]): 12.5 µg/mL (≈ 25.4 µM) | MIC (Aspergillus niger): 12.5 µg/mL (≈ 25.4 µM) | MIC (Aspergillus clavatus): 50 µg/mL (≈ 102 µM)

COc1ccc(C2CC(c3ccc(Br)cc3)=NN2c2ccc(S(N)(=O)=O)cc2)c(OC)c1 (centres undefined)
Ki (Acetylcholinesterase): 0.0377 µM

Cc1nc(-c2ccc(Br)cc2)ccc1C1=NNC(c2ccc(Br)cc2)C1 (centres undefined)
Time (Mus musculus [5]): 66.67 s | Time (Mus musculus [6]): 70.33 s

COc1ccc(C2CC(c3ccc(Cl)cc3)=NN2c2ccc(S(N)(=O)=O)cc2)c(OC)c1 (centres undefined)
Ki (Acetylcholinesterase): 0.0377 µM

COc1cccc2c1C(=O)c1c(O)c3c(c(O)c1C2=O)C[C@@](O)(C(=O)CO)C[C@@H]3O[C@H]1C[C@H](N)[C@H](O)[C@H](C)O1 [DOXORUBICIN HYDROCHLORIDE]
GI50 [14]: 0.02 µM

NS(=O)(=O)c1ccc(N2N=C(c3ccc(O)cc3)CC2c2cccs2)cc1 (centres undefined)
CC50 [9]: 39.3 µM | CC50 (Ca9-22): 39.3 µM | CC50 (HSC-3): 39.3 µM | Ki (Carbonic anhydrase 2 [3]): 0.342 µM | Ki (Carbonic anhydrase 12): 0.0062 µM | CC50 (HSC-2): 39.3 µM | CC50 [11]: 39.3 µM | Ki (Carbonic anhydrase 1 [4]): 0.232 µM | CC50 [12]: 39.3 µM

CC(=O)N1N=C(c2ccc(OS(N)(=O)=O)cc2)CC1c1ccccc1Cl (centres undefined)
Ki (Carbonic anhydrase 1 [16]): 2.46 µM | Ki (Carbonic anhydrase 2 [17]): 0.0004 µM | Ki (Carbonic anhydrase 4): 0.0177 µM | Ki (Carbonic anhydrase 9 [18]): 0.0148 µM

Cc1nc(-c2ccc(F)cc2)ccc1C1=NNC(c2ccc(Br)cc2)C1 (centres undefined)
Time (Mus musculus [5]): 66.67 s | Time (Mus musculus [6]): 70.33 s
